The test system of assay [1] is Oryza sativa. Put plainly: Induction of PBZ1 gene expression in three-leaf stage of Oryza sativa (rice) plant leaf after 5 days by Northern blot analysis. It counts as functional, organism-based.
Assay [2] concerns Oryza sativa. The experiment in a line: Induction of disease resistant in three-leaf stage of Oryza sativa (rice) plant against Xanthomonas oryzae pv. oryzae-induced leaf blight at 0.05 to 5 mg/pot after 7 days. Type of assay: functional, organism-based.
The subject of assay [3] is Xanthomonas oryzae pv. oryzae. The experiment in a line: Antibacterial activity against Xanthomonas oryzae pv. oryzae up to 1 mg/ml after 48 hr. It counts as functional, organism-based.
Assay [4] concerns Oryza sativa. Put plainly: Induction of disease resistant in three-leaf stage of Oryza sativa (rice) plant against Xanthomonas oryzae pv. oryzae-induced leaf blight at 5 mg/pot after 7 days. It counts as functional.
The test system of assay [5] is Oryza sativa. Put plainly: Induction of disease resistant in three-leaf stage of Oryza sativa (rice) plant against Xanthomonas oryzae pv. oryzae-induced leaf blight after 7 days. Type of assay: functional, organism-based.
Assay [6] concerns Oryza sativa. Put plainly: Induction of disease resistant in three-leaf stage of Oryza sativa (rice) plant against Xanthomonas oryzae pv. oryzae-induced leaf blight at 0.05 to 0.5 mg/pot after 7 days. Type of assay: functional, organism-based.

Calls of active or inactive are those of the source. The rule behind the calls is not given here.

Regarding `C=CCOC1=NS(=O)(=O)c2ccccc21`, the Activity entry in assay [1] is “Dose-dependent effect”. The result in assay [2] was Active.
For `CSC(=O)c1cccc2nnsc12`, in that order: “Dose-dependent effect” and “Active”.
As to `N#CCNC(=O)c1ccnc(Cl)c1`, the Activity result in assay [1] is “Dose-dependent effect”.
`Cn1nc(Cl)cc1C(=O)O` [3-CHLORO-1-METHYL-1H-PYRAZOLE-5-CARBOXYLIC ACID]: the Activity entry is “Dose-dependent effect” in assay [1], 99.5% in assay [4] and “Dose-dependent effect” in assay [5]. Moreover, the outcome in assay [3] was inactive. Moreover, the outcome in assay [6] was Active.

The values above are taken from ChEMBL document CHEMBL3045433, “Induction of Resistance against Rice Bacterial Leaf Blight by 3-Chloro-1-methyl-1H-pyrazole-5-carboxylic Acid” (2005).
